Measured values from PubChem BioAssay (NCI).
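Cells were grown in 96-well plates and exposed to each compound for 48 hours at five concentrations; endpoints were interpolated linearly between bracketing concentrations, or set to the highest concentration if not reached. GI50: concentration for 50% inhibition of growth. At the TGI there is no net growth.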

Columns and labels:
Experiment in all cases: growth of human tumour cells (NCI), 48 h
SR leukemia = tested on: SR leukemia
A549 NSCLC = tested on: A549 NSCLC
HS 578T breast = tested on: HS 578T breast
NCI-H460 lung = tested on: NCI-H460 lung
HCC-2998 colon = tested on: HCC-2998 colon
PC-3 prostate = tested on: PC-3 prostate
NCI-H226 lung = tested on: NCI-H226 lung
BT-549 breast = tested on: BT-549 breast
MDA-MB-435 = tested on: MDA-MB-435
CAKI-1 renal = tested on: CAKI-1 renal

| SMILES | TGI (SR leukemia) [µM] | TGI (A549 NSCLC) [µM] | TGI (HS 578T breast) [µM] | TGI (NCI-H460 lung) [µM] | TGI (HCC-2998 colon) [µM] | TGI (PC-3 prostate) [µM] | TGI (NCI-H226 lung) [µM] | TGI (BT-549 breast) [µM] | TGI (MDA-MB-435) [µM] | TGI (CAKI-1 renal) [µM] | GI50 (SR leukemia) [µM] | GI50 (A549 NSCLC) [µM] | GI50 (HS 578T breast) [µM] | GI50 (NCI-H460 lung) [µM] | GI50 (HCC-2998 colon) [µM] | GI50 (MDA-MB-435) [µM] | GI50 (PC-3 prostate) [µM] | GI50 (BT-549 breast) [µM] |
| --- | --- | --- | --- | --- | --- | --- | --- | --- | --- | --- | --- | --- | --- | --- | --- | --- | --- | --- |
| Cc1cn(CC2=NCCCN2)c(=O)[nH]c1=O | > 100 | > 100 | > 100 | > 100 | > 100 | > 100 | > 100 | > 100 | – | – | – | – | – | – | – | – | – | – |
| Nc1ccc(-c2nc3cc(F)ccc3s2)cc1I | > 59.5 | > 100 | > 75.1 | 23.7 | – | > 100 | 21 | 29.9 | > 100 | 72.5 | – | – | – | – | – | – | – | – |
| C1#Cc2ccccc2OCCOc2ccccc2C#Cc2ccccc2OCCOc2ccccc21 | – | > 100 | 64.3 | > 100 | – | > 100 | 38.3 | 81.9 | > 100 | 40.7 | – | – | – | – | – | – | – | – |
| Nc1ccccc1NC(=O)CCCCCCC(=O)Nc1ccc2c(c1)/C(=C/c1ccc[nH]1)C(=O)N2 | > 100 | > 100 | > 100 | > 100 | > 100 | > 100 | – | > 100 | > 100 | – | 4.64 | > 100 | 47.6 | 22.4 | > 100 | 14.7 | 6.92 | 0.391 |
| CCOC(=O)C(NC(=O)CC(C)C)(Nc1ccc(C(F)(F)F)cc1)C(F)(F)F (stereo unspecified) | > 100 | > 100 | > 100 | > 100 | > 100 | > 100 | > 100 | – | > 100 | – | – | – | – | – | – | – | – | – |
| N/N=C1/C(=N/O)CCc2nonc21 | > 100 | > 100 | > 100 | > 100 | > 100 | > 100 | > 100 | – | > 100 | > 100 | – | – | – | – | – | – | – | – |
| CC1(C)[C@@H](Cn2cnc3c(=O)[nH]c(N)nc32)CC[C@@]1(C)CO | – | > 100 | > 100 | – | > 100 | > 100 | > 100 | – | > 100 | > 100 | – | – | – | – | – | – | – | – |
| C=CCN(c1cc(OCc2ccccc2)c(NC(C)=O)cc1[N+](=O)[O-])S(C)(=O)=O | – | > 100 | 56.7 | > 100 | > 100 | > 100 | 25.2 | 93.3 | > 100 | > 100 | – | – | – | – | – | – | – | – |
| O=C(Nc1nnc(-c2ccccc2)o1)C(SC(=S)N1CCOCC1)c1ccccc1 (stereo unspecified) | 83.7 | > 100 | > 100 | 66.1 | – | > 100 | > 100 | > 100 | > 100 | > 100 | – | – | – | – | – | – | – | – |
| O=C1CCCC2=C1C(c1ccc3c(c1)OCO3)Nc1ccc3ccccc3c12 (stereo unspecified) | – | > 100 | > 100 | > 100 | > 100 | – | > 100 | > 100 | > 100 | > 100 | – | – | – | – | – | – | – | – |
